Experimental data: PMC6259277, “Synthesis, Gastroprotective Effect and Cytotoxicity of New Amino Acid Diterpene Monoamides and Diamides” (Molecules, 2010)

Columns and labels:
[1] = Cytotoxicity, neutral red uptake assay, AGS; assay type: cell-based; conditions: human, AGS gastric adenocarcinoma cells, confluent monolayers, confluent cultures, 0-1000 µM, mean ± SD
Protocol: (§1) Human gastric adenocarcinoma cells AGS (ATCC CRL-1739) were grown as monolayers in Ham F-12 medium containing 1.0 mM L-glutamine and 1.5 g/L sodium bicarbonate, supplemented with 10% heat-inactivated FBS, 100 IU/mL penicillin and 100 µg/mL streptomycin in a humidified incubator with 5% CO2 in air at 37 °C. The cell passage was maintained between 42 and 48. The medium was changed every 2 days. Confluent cultures of MRC-5, AGS and Hep G2 cells were treated with medium containing the compounds at concentrations ranging from 0 up to 1000 µM. The products were first dissolved in DMSO and then in the corresponding culture medium supplemented with 2% FBS. The final content of DMSO in the test medium and controls was 1%. Cells were exposed for 24 h to the assayed compounds. Untreated cells served as controls. Each concentration was tested in quadruplicate together with the control and repeated three times in separate experiments. At the end of the incubation, the neutral red uptake (NRU) assay was carried out to determine cell viability. To calculate the IC50 values (concentration that produces a 50% inhibitory effect on the evaluated parameter) the results were transformed to percentage of controls and the IC50 value was graphically obtained from the dose-response curves.

[2] = Cytotoxicity, neutral red uptake assay, MRC-5; assay type: cell-based; conditions: human, MRC-5 normal lung fibroblasts, confluent monolayers, confluent cultures, 0-1000 µM, mean ± SD
Protocol: (§2) Human normal lung fibroblasts MRC-5 (ATCC CCL-171) and Hep G2 cells (ATCC HB-8065) were grown as monolayers in minimum essential Eagle´s medium (MEM), with Earle's salts, 2.0 mM L-glutamine (Sigma Chemical Co.) and 2.0 g/L sodium bicarbonate (Sigma Chemical Co.), supplemented with 10% heat-inactivated fetal bovine serum (FBS), 100 IU/mL penicillin and 100 µg/mL streptomycin in a humidified incubator with 5% CO2 in air at 37 °C. Cell passage was maintained between 10 and 16 for MRC-5 and between 79 and 82 for Hep G2 cells. The medium was changed every 2 days. Culture media, antibiotics and FBS were obtained from Invitrogen Corp.
as §1, with “Confluent” for “Human gastric adenocarcinoma cells AGS (ATCC CRL-1739) were grown as monolayers in Ham F-12 medium containing 1.0 mM L-glutamine and 1.5 g/L sodium bicarbonate, supplemented with 10% heat-inactivated FBS, 100 IU/mL penicillin and 100 µg/mL streptomycin in a humidified incubator with 5% CO2 in air at 37 °C. The cell passage was maintained between 42 and 48. The medium was changed every 2 days. Confluent”

[3] = Cytotoxicity, neutral red uptake assay, Hep G2; assay type: cell-based; conditions: human, Hep G2 cells, confluent monolayers, confluent cultures, 0-1000 µM, mean ± SD
Protocol: as §2
as §1, with “Confluent” for “Human gastric adenocarcinoma cells AGS (ATCC CRL-1739) were grown as monolayers in Ham F-12 medium containing 1.0 mM L-glutamine and 1.5 g/L sodium bicarbonate, supplemented with 10% heat-inactivated FBS, 100 IU/mL penicillin and 100 µg/mL streptomycin in a humidified incubator with 5% CO2 in air at 37 °C. The cell passage was maintained between 42 and 48. The medium was changed every 2 days. Confluent”

[4] = test system: ethanol/HCl-induced gastric lesions; assay: Ethanol/HCl-induced gastric lesion (ulcer) model in mice; assay type: in vivo; conditions: for Gastroprotective effect: Lesion index: mean ± SD
Protocol: The gastroprotective activity of the compounds was determined in the ethanol/HCl-induced lesion model in mice. The purity of the tested compounds was higher than 95% by NMR analysis. Male Swiss albino mice weighing 30 ± 3 g were used. Animals were fed on certified Champion diet with free access to water under standard conditions of 12 h dark-light period, 50% relative humidity and 22 °C room temperature. Mice were randomly distributed into groups of eight animals each and fasted for 24 h with free access to water previous to the experiment. Fasting prior to ulcerogenic assays was used because 0.2 mL of the reference antisecretory drug lansoprazole (2-[[[3-methyl-4-(2,2,2-trifluroethoxy)-2-pyridyl]methyl]sulfinyl]benzimidazole) and the amides were administered orally. To keep the animal number to a minimum, dose-response studies were performed with the leucine derivatives 13 and 18 to set the conditions for single-dose comparison of gastroprotective effect. For the selected parent compounds, three doses were used: 25, 50 and 100 mg/kg. Fifty min after oral administration of the compounds, lansoprazole (20 mg/kg) or the vehicle (12% Tween 80, 10 mL/kg), all groups were orally treated with 0.2 mL of a solution containing 60% ethanol/0.3 M HCl (ethanol/HCl) for gastric lesion induction. Animals were sacrificed by cervical dislocation 1 h after the administration of ethanol/HCl, and the stomachs excised and inflated by injection of 5% formalin (1 mL). The ulcerated stomachs were fixed in 5% formalin for 30 min and opened along the greater curvature. The length (mm) of each lesion was measured, and the lesion index expressed as the sum of the length of all lesions. For comparison purposes, the products 1-5, 7-12, 14-16, 19 and 20 were assessed at a single oral dose of 25 mg/kg. The protocols were approved by the Universidad de Talca Institutional Animal Care and Use Committee, which follows the recommendations of the Canadian Council on Animal Care. Tween 80 and lansoprazole (> 98% purity by HPLC) were purchased from Sigma Chemical Co.
Results were expressed as the mean ± SD. In all experiments, statistical differences between several treatments and their respective control were determined by one-way analysis of variance (ANOVA) and when the F value was significant, post hoc differences were determined by the Dunnett's multiple comparison test. The level of significance was set at P < 0.05. All statistical analyses were performed using the software Statistica 5.1 (StatSoft, Inc.) and Statistical Package S-Plus 2000.

[5] = Mus musculus, po, single oral dose 25 mg/kg, compared with untreated controls, read-out: Gastroprotective effect: % Lesion reduction
[6] = single oral dose 25 mg/kg, sum of lesion lengths

C=C1CCC2[C@](C)(CCC[C@]2(C)C(=O)N[C@@H](CC(C)C)C(=O)OC)[C@H]1CC[C@@H](C)CC(=O)N[C@@H](CC(C)C)C(=O)OC (stereo partly shown) [Compound 18, Labd-8(17)-en-15,19-dioic acid, 15,19-dileucyl methyl ester amide]
IC50 at 24 h [1]: > 1000 µM
IC50 at 24 h [2]: 495 ± 35 µM
IC50 at 24 h [3]: > 1000 µM
inhibition in vivo at 25 mg/kg [4, 5]: ~49.6%
gastric lesion reduction at the higher doses ([4]; dose-response study, higher oral doses (50 and 100 mg/kg)): 79-89%
Gastroprotective effect: Lesion index ([4]; single oral dose 25 mg/kg, sum of lesion lengths, 25 mg/kg): 23.2 ± 12.9 mm

C=C1CCC2[C@](C)(CCC[C@]2(C)C(=O)N2CCC[C@H]2C(=O)OC)[C@H]1CC[C@@H](C)CC(=O)N1CCC[C@H]1C(=O)OC (stereo partly shown) [Compound 19, Labd-8(17)-en-15,19-dioic acid, 15,19-diprolyl methyl ester amide]
IC50 at 24 h [1]: 206 ± 10 µM
IC50 at 24 h [2]: 267 ± 14 µM
IC50 at 24 h [3]: 316 ± 16 µM
inhibition in vivo at 25 mg/kg [4, 5]: 87.8%
Gastroprotective effect: Lesion index [4, 6]: 5.6 ± 3.2 mm

C=C1CCC2[C@](C)(CCC[C@]2(C)C(=O)N[C@@H](Cc2c[nH]c3ccccc23)C(=O)OCC)[C@H]1CC[C@@H](C)CC(=O)N[C@@H](Cc1c[nH]c2ccccc12)C(=O)OCC (stereo partly shown) [Compound 20, Labd-8(17)-en-15,19-dioic acid, 15,19-ditryptophanyl ethyl ester amide]
IC50 at 24 h [1]: > 1000 µM
IC50 at 24 h [2]: > 1000 µM
IC50 at 24 h [3]: > 1000 µM
inhibition in vivo at 25 mg/kg [4, 5]: 68.9%
Gastroprotective effect: Lesion index [4, 6]: 14.3 ± 10.7 mm

Cc1c(OCC(F)(F)F)ccnc1C[S+]([O-])c1nc2ccccc2[nH]1 (stereo not shown) [Lansoprazole, 2-[[[3-methyl-4-(2,2,2-trifluroethoxy)-2-pyridyl]methyl]sulfinyl]benzimidazole, reference compound]
IC50 at 24 h [1]: 162 ± 6 µM
IC50 at 24 h [2]: 306 ± 11 µM
IC50 at 24 h [3]: 221 ± 9 µM
inhibition in vivo at 20 mg/kg ([4]; Mus musculus, po, reference drug at 20 mg/kg oral, compared with untreated controls, read-out: Gastroprotective effect: % Lesion reduction): 79.3%
Gastroprotective effect: Lesion index ([4]; reference drug at 20 mg/kg oral, 20 mg/kg): 9.5 ± 2.5 mm
Gastroprotective effect: Lesion index ([4]; reference drug at 20 mg/kg oral, listed as lansoprazole, 20 mg/kg): 9.5 ± 2.5 mm
